# Laboratory results: patent publication US6218157A, “Haloacetoacetate reductase, method for producing said enzyme, and method for producing alcohols using said enzyme” (priority 1997, dated 2001)
# Read-outs that look alike come from different tables or passages of the source.
# Tests used:
# Assay type in all cases: biochemical
# [1] = molecular target: T1, ethyl 4-chloroacetoacetate reductase (Kluyveromyces lactis, UniProt Q6CT25); test: Effects of various inhibitors on the ethyl 4-chloroacetoacetate-reducing activity
# T1 construct: almost single band, about 190 kDa on SDS-PAGE
# T1 sequence (Q6CT25 1-1893): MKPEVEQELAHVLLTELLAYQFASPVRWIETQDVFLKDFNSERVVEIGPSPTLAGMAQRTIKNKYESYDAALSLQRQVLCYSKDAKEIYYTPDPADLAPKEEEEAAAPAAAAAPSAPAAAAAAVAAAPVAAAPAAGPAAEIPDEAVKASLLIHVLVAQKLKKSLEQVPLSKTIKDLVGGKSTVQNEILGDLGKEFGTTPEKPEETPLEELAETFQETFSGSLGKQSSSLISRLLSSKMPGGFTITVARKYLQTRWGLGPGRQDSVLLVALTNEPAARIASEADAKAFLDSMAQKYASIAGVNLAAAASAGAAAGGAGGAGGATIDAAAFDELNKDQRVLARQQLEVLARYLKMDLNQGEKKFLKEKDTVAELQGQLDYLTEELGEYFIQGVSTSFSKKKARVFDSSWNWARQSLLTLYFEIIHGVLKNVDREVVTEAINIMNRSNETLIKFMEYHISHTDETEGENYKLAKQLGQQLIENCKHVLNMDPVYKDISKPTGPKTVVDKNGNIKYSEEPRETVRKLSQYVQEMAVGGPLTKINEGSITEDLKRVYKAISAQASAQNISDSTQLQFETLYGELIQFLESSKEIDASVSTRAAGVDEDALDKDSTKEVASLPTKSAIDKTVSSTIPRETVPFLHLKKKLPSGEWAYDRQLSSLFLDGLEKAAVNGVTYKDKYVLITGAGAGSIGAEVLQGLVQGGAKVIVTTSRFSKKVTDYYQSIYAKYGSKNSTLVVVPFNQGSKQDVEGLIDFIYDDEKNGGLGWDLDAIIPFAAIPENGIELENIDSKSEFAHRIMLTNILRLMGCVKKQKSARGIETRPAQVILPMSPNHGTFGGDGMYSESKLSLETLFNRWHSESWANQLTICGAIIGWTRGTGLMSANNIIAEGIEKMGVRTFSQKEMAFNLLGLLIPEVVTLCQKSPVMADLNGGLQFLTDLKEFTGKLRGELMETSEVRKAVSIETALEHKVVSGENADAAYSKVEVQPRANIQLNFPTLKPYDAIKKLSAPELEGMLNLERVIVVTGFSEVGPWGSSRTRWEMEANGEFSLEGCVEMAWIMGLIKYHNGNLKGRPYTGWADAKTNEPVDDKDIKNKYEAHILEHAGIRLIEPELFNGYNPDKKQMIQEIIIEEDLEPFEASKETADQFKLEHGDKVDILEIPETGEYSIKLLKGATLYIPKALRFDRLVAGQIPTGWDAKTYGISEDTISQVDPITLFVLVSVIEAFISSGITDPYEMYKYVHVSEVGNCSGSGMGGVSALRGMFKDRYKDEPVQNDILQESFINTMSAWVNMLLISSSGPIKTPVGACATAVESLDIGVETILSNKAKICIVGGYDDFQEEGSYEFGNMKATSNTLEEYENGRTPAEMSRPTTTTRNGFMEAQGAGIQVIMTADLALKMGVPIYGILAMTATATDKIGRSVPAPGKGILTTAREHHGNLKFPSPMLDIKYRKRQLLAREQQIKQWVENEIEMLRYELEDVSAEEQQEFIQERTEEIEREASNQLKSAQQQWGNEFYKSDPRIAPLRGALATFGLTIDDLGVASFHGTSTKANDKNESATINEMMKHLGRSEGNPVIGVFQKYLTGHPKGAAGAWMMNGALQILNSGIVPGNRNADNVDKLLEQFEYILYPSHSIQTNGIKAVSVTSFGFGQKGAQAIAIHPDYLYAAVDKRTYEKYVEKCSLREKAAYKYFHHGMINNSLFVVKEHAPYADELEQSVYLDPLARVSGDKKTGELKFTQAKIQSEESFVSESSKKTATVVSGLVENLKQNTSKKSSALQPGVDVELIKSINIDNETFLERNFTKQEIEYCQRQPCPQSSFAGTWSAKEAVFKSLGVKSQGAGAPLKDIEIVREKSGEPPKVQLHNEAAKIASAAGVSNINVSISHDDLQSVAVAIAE
# T1 sequence (Q6CWN6 1-2047 partner): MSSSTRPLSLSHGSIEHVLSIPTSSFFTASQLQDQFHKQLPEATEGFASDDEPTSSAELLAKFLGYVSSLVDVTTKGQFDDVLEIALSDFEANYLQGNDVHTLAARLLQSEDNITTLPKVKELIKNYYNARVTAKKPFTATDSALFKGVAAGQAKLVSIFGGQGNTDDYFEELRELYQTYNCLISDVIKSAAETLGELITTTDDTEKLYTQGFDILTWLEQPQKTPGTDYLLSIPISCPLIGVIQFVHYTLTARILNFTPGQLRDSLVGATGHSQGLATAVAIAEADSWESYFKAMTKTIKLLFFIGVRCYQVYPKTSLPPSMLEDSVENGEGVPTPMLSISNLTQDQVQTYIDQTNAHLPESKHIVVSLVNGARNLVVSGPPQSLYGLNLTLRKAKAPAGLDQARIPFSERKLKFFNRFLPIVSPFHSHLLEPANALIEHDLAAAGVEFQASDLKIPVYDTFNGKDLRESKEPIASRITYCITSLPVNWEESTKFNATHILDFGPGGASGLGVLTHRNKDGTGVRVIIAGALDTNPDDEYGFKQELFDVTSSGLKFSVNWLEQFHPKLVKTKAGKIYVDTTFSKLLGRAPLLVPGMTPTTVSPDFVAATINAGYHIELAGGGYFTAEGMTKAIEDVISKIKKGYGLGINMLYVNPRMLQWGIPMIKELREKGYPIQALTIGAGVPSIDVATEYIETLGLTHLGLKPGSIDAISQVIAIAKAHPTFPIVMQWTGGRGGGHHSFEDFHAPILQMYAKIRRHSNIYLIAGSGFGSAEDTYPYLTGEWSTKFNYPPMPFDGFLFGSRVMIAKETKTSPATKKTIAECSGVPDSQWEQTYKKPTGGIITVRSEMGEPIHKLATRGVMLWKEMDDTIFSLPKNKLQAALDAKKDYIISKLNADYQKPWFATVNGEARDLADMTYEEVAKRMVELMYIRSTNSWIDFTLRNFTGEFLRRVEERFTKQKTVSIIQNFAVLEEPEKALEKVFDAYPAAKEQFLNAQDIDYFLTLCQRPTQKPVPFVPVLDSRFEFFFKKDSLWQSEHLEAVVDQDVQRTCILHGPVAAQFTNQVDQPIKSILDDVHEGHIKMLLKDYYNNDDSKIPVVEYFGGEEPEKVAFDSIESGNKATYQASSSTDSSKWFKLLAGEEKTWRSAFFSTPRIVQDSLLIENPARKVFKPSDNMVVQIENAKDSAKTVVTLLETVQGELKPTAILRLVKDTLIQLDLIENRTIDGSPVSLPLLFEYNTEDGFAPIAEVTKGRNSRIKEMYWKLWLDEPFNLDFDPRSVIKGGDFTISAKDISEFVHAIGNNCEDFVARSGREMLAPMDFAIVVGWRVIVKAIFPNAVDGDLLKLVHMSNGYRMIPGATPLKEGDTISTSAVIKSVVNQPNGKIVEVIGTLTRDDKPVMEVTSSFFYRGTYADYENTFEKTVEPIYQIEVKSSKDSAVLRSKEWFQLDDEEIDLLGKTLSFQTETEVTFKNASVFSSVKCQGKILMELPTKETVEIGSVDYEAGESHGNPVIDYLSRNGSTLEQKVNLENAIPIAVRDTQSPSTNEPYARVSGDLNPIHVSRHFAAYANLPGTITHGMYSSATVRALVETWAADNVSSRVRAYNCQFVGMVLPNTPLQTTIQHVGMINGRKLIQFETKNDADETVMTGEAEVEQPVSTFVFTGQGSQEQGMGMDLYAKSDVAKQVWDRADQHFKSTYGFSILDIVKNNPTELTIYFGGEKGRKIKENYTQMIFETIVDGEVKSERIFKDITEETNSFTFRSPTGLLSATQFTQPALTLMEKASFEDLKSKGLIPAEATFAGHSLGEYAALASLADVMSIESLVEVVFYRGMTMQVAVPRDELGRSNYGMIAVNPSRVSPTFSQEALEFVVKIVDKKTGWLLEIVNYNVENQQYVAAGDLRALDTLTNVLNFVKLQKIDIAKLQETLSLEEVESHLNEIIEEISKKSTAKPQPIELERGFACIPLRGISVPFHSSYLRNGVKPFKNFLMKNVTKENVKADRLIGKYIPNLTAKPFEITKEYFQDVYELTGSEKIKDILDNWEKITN
# Protocol: (§1) In these examples, the 4-haloacetoacetic acid ester-reducing activity of the enzyme of this invention was determined by allowing it to react in a reaction system containing 50 mM potassium phosphate buffer (pH 6.5), 0.2 mM NADPH, 20 mM ethyl 4-chloroacetoacetate, and the enzyme at 30° C. and measuring the decrease in the absorbance at 340 nm in proportion to the decrease of NADPH. One unit of the enzyme was defined as the amount of the enzyme to catalyze a decrease of 1 μmol of NADPH per min. Protein was quantitated by the pigment binding method using a protein assay kit manufactured by BioRad.
# After the enzyme obtained in Example 1 was treated with various reagents at 30° C. for 10 min, it was assayed for the remaining activity to reduce ethyl 4chloroacetoacetate.
# [2] = molecular target: T1, ethyl 4-chloroacetoacetate reductase; test: Substrate specificity: reducing activity of the enzyme on various ketones and aldehydes; conditions: for Relative activity: coenzyme NADPH, ethyl 4-chloroacetoacetate-reducing activity = 100%; for Reducing activity on substrate (in words): NADPH as electron donor
# Protocol: as §1
# [3] = molecular target: T1, ethyl 4-chloroacetoacetate reductase; test: as above; conditions: substrate 20 mM, coenzyme NAD; ethyl 4-chloroacetoacetate-reducing activity = 100%
# [4] = inhibitor 1 mM, 30° C., 10 min, standard conditions = 100%, read-out: Residual activity
# [5] = inhibitor 1 mM, 30° C., 10 min, standard conditions = 100%
structure (smiles),measurement,setting,value
NC(=O)CI [Iodoacetamide],remaining activity at 1000 µM,[1]; [4],53.9%
O=S(=O)(F)Cc1ccccc1 [Phenylmethanesulfonyl fluoride],Residual activity,[1]; [5],89.4%
CC(=O)C=O [Methylglyoxal],Relative activity,[2]; substrate 20 mM,1.8%
[Cl][Hg][Cl] [Mercuric chloride],Inhibition of the enzyme (in words),[1],significantly inhibited
same,Residual activity,"[1]; inhibitor 0.01 mM, 30° C., 10 min, standard conditions = 100%",0.0%
O=Cc1ccc([N+](=O)[O-])cc1 [p-Nitrobenzaldehyde],Relative activity,[2]; substrate 0.2 mM,0%
C/C=C/C(=O)O [Chlotonic acid],remaining activity at 50000 µM,"[1]; inhibitor 50 mM, 30° C., 10 min, standard conditions = 100%, read-out: Residual activity",87.7%
CCOC(=O)CC(=O)CCl [Ethyl 4-chloroacetoacetate],Relative activity,[2]; substrate 20 mM,100%
same,Relative activity,"[2]; substrate 20 mM, listed as Ethyl 4-chloroacetoaetate",0%
O=Cc1cccnc1 [Pyridine-3-aldehyde],Relative activity,[2]; substrate 20 mM,0%
O=C(O)CN(CCN(CC(=O)O)CC(=O)O)CC(=O)O [Ethylenediaminetetraacetic acid],remaining activity at 1000 µM,[1]; read-out: Residual activity,98.4%
CC(=O)c1ccccc1 [Acetophenone],Relative activity,[2]; substrate 20 mM,0%
CCC1(CC)C(=O)NC(=O)NC1=O [Diethylbarbituric acid],remaining activity at 1000 µM,[1]; [4],82.5%
c1cnc2c(c1)ccc1cccnc12 [o-Phenanthroline],remaining activity at 1000 µM,[1]; [4],88.3%
O=S(=O)([O-])[O-].[Cu+2] [Copper sulfate],Inhibition of the enzyme (in words),[1],inhibited
same,Residual activity,[1]; [5],0.0%
same,Inhibition of the enzyme (in words),[1]; listed as cupric sulfate,significantly inhibited
O=C1CN2CCC1CC2 [3-Quinuclidinone],Relative activity,[2]; substrate 20 mM,0.8%
CC(=O)COC(C)=O [Acetoxy-2-propanone],Relative activity,[2]; substrate 20 mM,0%
O=C(O)c1cc[c]([Hg][Cl])cc1 [p-Chloromercuribenzoic acid],Inhibition of the enzyme (in words),[1],completely inhibited
same,Residual activity,"[1]; inhibitor 0.05 mM, 30° C., 10 min, standard conditions = 100%",0.0%
same,Inhibition of the enzyme (in words),[1]; listed as p-chloromercuricbenzoic acid,significantly inhibited
COC(=O)CC(C)=O [Methyl acetoacetate],Relative activity,[2]; substrate 20 mM,0%
CCOC(=O)C(=O)CCc1ccccc1,Relative activity,[2]; substrate 20 mM,0%
O=c1c(O)c(-c2ccc(O)c(O)c2)oc2cc(O)cc(O)c12 [Quercetin],remaining activity at 100 µM,"[1]; inhibitor 0.1 mM, 30° C., 10 min, standard conditions = 100%, read-out: Residual activity",68.1%
"CCC(=O)C(C)=O [2,3-Pentanedione]",Reducing activity on substrate (in words),[2],high activity
same,Relative activity,[2]; substrate 20 mM,44.2%
O=Cc1cccc([N+](=O)[O-])c1 [m-Nitrobenzaldehyde],Relative activity,[2]; substrate 0.2 mM,0.4%
O=C1Nc2ccccc2C1=O [Isatine],Relative activity,[2]; substrate 0.4 mM,0%
COC(=O)CC(=O)CCl [Methyl 4-chloroacetoacetate],Reducing activity on substrate (in words),[2],high activity
same,Relative activity,[2]; substrate 20 mM,66.3%
O=C[C@H](O)[C@@H](O)[C@H](O)CO [Xylose],Relative activity,[2]; substrate 20 mM,0%
CCOC(=O)CC(C)=O [Ethyl acetoacetate],Relative activity,[2]; substrate 20 mM,0%
O=Cc1ccccc1[N+](=O)[O-] [o-Nitrobenzaldehyde],Relative activity,[2]; substrate 0.2 mM,0%
CCC=O [Propionaldehyde],Relative activity,[2]; substrate 20 mM,0%
O=C(O)C(=O)CCc1ccccc1 [Benzylpyruvic acid],Relative activity,[2]; substrate 1 mM,0%
O=CC(=O)c1ccccc1 [Phenylglyoxal],Relative activity,[2]; substrate 0.5 mM,0%
"CC(=O)CC(C)=O [2,4-Pentanedione]",Relative activity,[2]; substrate 20 mM,0%
CCOC(=O)C[C@H](O)CCl,Relative activity,[3],0%
CC(=O)CCO [4-Hydroxy-2-butanone],Relative activity,[2]; substrate 20 mM,0%
CCOC(=O)C[C@@H](O)CCl [Ethyl (R)-4-chloro-3-hydroxy-acetate],Relative activity,[3],0%
CCN1C(=O)C=CC1=O [N-ethylmaleimide],Inhibition of the enzyme (in words),[1],inhibited
same,remaining activity at 1000 µM,[1]; [4],20.1%
"CC(=O)C(C)=O [2,3-Butanedione]",Relative activity,[2]; substrate 20 mM,4.2%
O=S(=O)([O-])[O-].[Zn+2] [Zinc sulfate],Inhibition of the enzyme (in words),[1],inhibited
same,Residual activity,[1]; [5],12.2%
C=CC(C)=O [Methyl vinyl ketone],Inhibition of the enzyme (in words),[1],inhibited
same,remaining activity at 10000 µM,"[1]; inhibitor 10 mM, 30° C., 10 min, standard conditions = 100%, read-out: Residual activity",26.3%
